Assay results taken from US20250228239A1, “MOLECULES HAVING PESTICIDAL UTILITY, AND INTERMEDIATES, COMPOSITIONS, AND PROCESSES, RELATED THERETO” (priority 2024, published 2025).

Assays:
[1] = tested on: Beet Armyworm (Spodoptera exigua, LAPHEG); experiment: Bioassays on Beet Armyworm (BAW), 128-well diet tray assay; type: in vivo; conditions: Spodoptera exigua; Beet Armyworm, Table ABC / ABC-DP rating; read-out: BAW rating
Summary of the method: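 Diet-overlay assay: 50 μg/cm^2 compound applied in 90:10 acetone-water to artificial diet, allowed to dry, then infested with 1–5 L2 larvae/well; 8 wells/compound; covered, vented; 25° C., 14:10 L:D, 5–7 d; % mortality per well, averaged.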

[2] = tested on: Cabbage Looper (Trichoplusia ni, TRIPNI); experiment: Bioassays on Cabbage Looper (CL), 128-well diet tray assay; type: in vivo; conditions: Trichoplusia ni; Cabbage Looper, Table ABC / ABC-DP rating; read-out: CL rating
Summary of the method: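 Percent mortality, averaged across eight replicate wells, after second-instar larvae (1–5 per well) fed for five to seven days on diet dosed at 50 μg/cm^2. Compound was applied in acetone-water 90:10 and dried; trays kept vented at 25° C under 14:10 photoperiod.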

SMILES | pest or weed control at 50 µg/cm2 [1] [%] | pest or weed control at 50 µg/cm2 [2] [%]
O=C(CC1CC1)NNC(=O)c1cc(NC(=O)[C@H]2[C@H](c3cc(Cl)cc(Cl)c3)C2(Cl)Cl)ccc1Cl (relative stereo) [F2528, trans-2,2-Dichloro-N-(4-chloro-3-(2-(2-cyclopropylacetyl)hydrazine-1-carbonyl)phenyl)-3-(3,5-dichlorophenyl)cyclopropane-1-carboxamide] | 50 to 100 | 50 to 100
COCC(=O)NNC(=O)c1cc(NC(=O)[C@H]2[C@H](c3cc(Cl)cc(Cl)c3)C2(Cl)Cl)ccc1Cl (relative stereo) [F2529, trans-2,2-Dichloro-N-(4-chloro-3-(2-(2-methoxyacetyl)hydrazine-1-carbonyl)phenyl)-3-(3,5-dichlorophenyl)cyclopropane-1-carboxamide] | 50 to 100 | 50 to 100
O=C(NNC(=O)C(C(F)(F)F)C(F)(F)F)c1cc(NC(=O)[C@H]2[C@H](c3cc(Cl)cc(Cl)c3)C2(Cl)Cl)ccc1Cl (relative stereo) [F2532, trans-2,2-Dichloro-N-(4-chloro-3-(2-(3,3,3-trifluoro-2-(trifluoromethyl)propanoyl)hydrazine-1-carbonyl)phenyl)-3-(3,5-dichlorophenyl)cyclopropane-1-carboxamide] | 50 to 100 | 50 to 100
CN(NC(=O)c1cc(NC(=O)[C@H]2[C@H](c3cc(Cl)cc(Cl)c3)C2(Cl)Cl)ccc1Cl)C(=O)CC(F)(F)F (relative stereo) [F2533, trans-2,2-Dichloro-N-(4-chloro-3-(2-methyl-2-(3,3,3-trifluoropropanoyl)hydrazine-1-carbonyl)phenyl)-3-(3,5-dichlorophenyl)cyclopropane-1-carboxamide] | 50 to 100 | 50 to 100
CN(NC(=O)c1cc(NC(=O)[C@H]2[C@H](c3cc(Cl)cc(Cl)c3)C2(Cl)Cl)ccc1Cl)C(=O)C1CC1(F)F (relative stereo) [F2534, trans-2,2-Dichloro-N-(4-chloro-3-(2-(2,2-difluorocyclopropane-1-carbonyl)-2-methylhydrazine-1-carbonyl)phenyl)-3-(3,5-dichlorophenyl)cyclopropane-1-carboxamide] | 50 to 100 | 50 to 100
O=C(NCC(F)(F)F)NNC(=O)c1cc(NC(=O)[C@H]2[C@H](c3cc(Cl)cc(Cl)c3)C2(Cl)Cl)ccc1Cl (relative stereo) [F2535, trans-2-(2-chloro-5-(2,2-dichloro-3-(3,5-dichlorophenyl)cyclopropane-1-carboxamido)benzoyl)-N-(2,2,2-trifluoroethyl)hydrazine-1-carboxamide] | 50 to 100 | 50 to 100
CC(C)NC(=O)NNC(=O)c1cc(NC(=O)[C@H]2[C@H](c3cc(Cl)cc(Cl)c3)C2(Cl)Cl)ccc1Cl (relative stereo) [F2536, trans-2-(2-Chloro-5-(2,2-dichloro-3-(3,5-dichlorophenyl)cyclopropane-1-carboxamido)benzoyl)-N-isopropylhydrazine-1-carboxamide] | 50 to 100 | 50 to 100
O=C(NNC(=S)NCC(F)(F)F)c1cc(NC(=O)[C@H]2[C@H](c3cc(Cl)cc(Cl)c3)C2(Cl)Cl)ccc1Cl (relative stereo) [F2539, trans-2,2-dichloro-N-(4-chloro-3-(2-((2,2,2-trifluoroethyl)carbamothioyl)hydrazine-1-carbonyl)phenyl)-3-(3,5-dichlorophenyl)cyclopropane-1-carboxamide] | 50 to 100 | 50 to 100
CC(C)NC(=S)NNC(=O)c1cc(NC(=O)[C@H]2[C@H](c3cc(Cl)cc(Cl)c3)C2(Cl)Cl)ccc1Cl (relative stereo) [F2540, trans-2,2-Dichloro-N-(4-chloro-3-(2-(isopropylcarbamothioyl)hydrazine-1-carbonyl)phenyl)-3-(3,5-dichlorophenyl)cyclopropane-1-carboxamide] | 50 to 100 | 50 to 100
